Assay results reported in US6583146B1, “Thiazolopyrimidine compounds, its production and use” (Takeda Chemical Industries, Ltd., priority 1999, dated 2003).

Target: T1, human adenosine A3 receptor (Homo sapiens, UniProt P0DMS8)
T1 construct: expressed in transfected cells; membrane fraction used
T1 sequence (P0DMS8 1-318): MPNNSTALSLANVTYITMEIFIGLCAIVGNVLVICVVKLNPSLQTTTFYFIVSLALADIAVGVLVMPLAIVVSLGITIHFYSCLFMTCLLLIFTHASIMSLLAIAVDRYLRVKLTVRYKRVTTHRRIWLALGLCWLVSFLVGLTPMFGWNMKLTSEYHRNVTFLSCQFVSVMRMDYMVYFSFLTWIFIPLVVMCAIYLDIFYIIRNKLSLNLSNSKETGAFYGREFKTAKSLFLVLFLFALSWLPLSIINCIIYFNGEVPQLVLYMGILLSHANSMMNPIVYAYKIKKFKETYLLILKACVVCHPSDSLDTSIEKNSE
Assay: Binding assays with adenosine A3 receptor ([3H]-NECA displacement, A3AR/CHO cell membranes)
Settings: [3H]-NECA as ligand; 100 μg/mL membranes of CHO cells expressing human adenosine A3 receptor; 1 hour at room temperature; read-out: IC50 (concentration that inhibits 50% specific binding of [3H]-NECA to the membrane)
Description: The following procedures in this Example were carried out according to the methods described in Molecular Cloning —Cold Spring Harbor Laboratory (1989) or protocol specified by manufacturers.
Cloning of the human adenosine A3 receptor gene was carried out by the polymerase chain reaction (PCR) from human brain cDNA. Using 1 ng of brain cDNA (Quick-Clone cDNA, TOYOBO, Osaka) as template, PCR was performed in DNA Thermal Cycler 480 (Perkin Elmer) (reaction conditions: 35 cycles of 1 min at 95° C., 1 min at 66° C., and 2 min at 75° C.) by mixing primers (50 pmol each),
5′-[…]-3′ [Sequence No. 1] and 5′-[…]-3′ [Sequence No. 2], which were designed referring to nucleotide sequence of adenosine A3 receptor gene reported by Salvatore et. al., (Proc. Natl. Acad. Sci. U. S. A., 90:10365-10369, 1993) and TaKaRa LA PCR Kit Ver.2 (TaKaRa Shuzo Co. Ltd., Kyoto). The PCR product was electrophoresed and 1.0 kb DNA fragment was recovered. The DNA fragment encoding adenosine A3 receptor was cloned using Original TA Cloning Kit (FUNAKOSHI, Tokyo).
Thus obtained plasmid was digested with Xba I (TaKaRa Shuzo Co. Ltd., Kyoto), blunted with T4 DNA polymerase (TaKaRa Shuzo Co. Ltd., Kyoto) and digested with Sal I (TaKaRa Shuzo Co. Ltd., Kyoto) to obtain adenosine A3 receptor gene fragment. […]

## COc1ccc(-c2c(-c3ccncc3)sc3nc(=O)cc(N)n23)cc1 [Example Compound 1, 5-Amino-3-(4-methoxyphenyl)-2-(4-pyridyl)-7H-thiazolo[3,2-a]pyrimidin-7-one]
  IC50: 3.5 nM
